The values below come from US20250059199A1, “SOLID FORMS OF A TYK2 INHIBITOR, METHOD OF PREPARATION, AND USE THEREOF” (BeiGene Switzerland GmbH, priority 2021, published 2025).

Where a name gives a salt, the structure may show the parent alone.

The solubility is the dissolved amount per volume that the medium holds.

One data set is described as follows: Bulk stability. The class given is physicochemical. Particulars: 1 week. The protocol: Bulk stability of Compound 1 mesylate Form C, phosphate Form A, maleate Form A, fumarate Form B was investigated under 25° C./60% RH in an open container and under 40° C./75% RH in an open container over 1 week. Bulk stability of Compound 1 hydrochloride Form C and Form D, were evaluated under 25° C./60% RH in an open container, under 40° C./75% RH in an open container, and at 60° C. in a tight container over 1 week.

Data set [1] is described as follows: Solubility in aqueous pH buffers and bio-relevant solutions. Particulars: for solubility: in some solvent systems (summary statement). It is filed as physicochemical. The method, then:
Solubility of the Compound 1 mesylate Form C, phosphate Form A, maleate Form A, and fumarate Form B was measured in 6 aqueous pH buffers and bio-relevant solutions including pH 1.2 HCl solution (0.1 N), pH 4.5 acetate buffer (50 mM), water, pH 2.0 SGF, pH 6.5 FaSSIF-v1, and pH 5.0 FeSSIF-v1 at 37° C. for 1 h and 2 h. Residual solids after the solubility test were analyzed by XRPD.

Data set [2] can be described thus: Hygroscopicity by dynamic vapor sorption (DVS) test. It is filed as physicochemical. Particulars: for Form and crystallinity after the DVS test: after DVS at 25° C.; for hygroscopicity: DVS at 25° C.; for water absorbed: from 40% RH to 95% RH at 25° C. The method, then:
It absorbed about 1.1% water from 40% RH to 95% RH at 25° C. […] It absorbed about 2.3% water from 40% RH to 95% RH at 25° C. […] It absorbed about 0.4% water from 40% RH to 95% RH at 25° C. […] It absorbed about 0.29% water from 40% RH to 95% RH at 25° C. […] It absorbed about 0.14% water from 40% RH to 95% RH at 25° C. After the DVS test.

Data set [3] in a line: Feasibility of Formulation process (compression, dry grinding, granulation simulation). It is filed as physicochemical. Particulars: for tolerance to compression, dry grinding, granulation simulation: compression at 2, 5, 10 and 20 MPa, Form change and crystallinity. The method, then: Feasibility of Formulation process for Compound 1 mesylate Form C, phosphate Form A, maleate Form A, fumarate Form B hydrochloride Form C, and hydrochloride Form D were evaluated by compression (at 2 MPa, 5 MPa, 10 MPa, and 20 MPa), dry grinding, and granulation simulation experiments.

The nature of a further data set: PK exposure. The class given is in vivo. Particulars: summary statement, method not given.
Data set [4] is described as follows: Physicochemical stability of Compound 1 Form A (equilibration, evaporation, anti-solvent, DSC heating-cooling cycle experiments). Particulars: equilibration at 25° C. (18 solvent systems) and 50° C. (19), slow and fast evaporation.

With `CC(=O)Nc1cc(Nc2cc(C3CCOCC3)cc(S(C)(=O)=O)n2)c(-c2ccc3c(n2)OCC(C)(C)O3)cn1` [Compound 1 fumarate Form B, N-(5-(2,2-dimethyl-2,3-dihydro-[1,4]dioxino[2,3-b]pyridin-6-yl)-4-((6-(methylsulfonyl)-4-(tetrahydro-2H-pyran-4-yl)pyridin-2-yl)amino)pyridin-2-yl)acetamide], the bulk stability entry was “physically and chemically stable” in “Bulk stability” (25° C./60% RH, open container); “physically and chemically stable” in the data set “Bulk stability” (40° C./75% RH, open container). In data set [1] (SGF), the “residual solids after the solubility test (XRPD)” value is “remained unchanged”. In addition, the solubility result in data set [1] was “relatively high solubility”. For the same molecule, the “DVS behaviour of the potential hydrate” value in data set [2] (RH<70%, 25° C.) is “underwent dehydration when RH<70% and returns back to the anhydrate”. Also, the “Form and crystallinity after the DVS test” value (from here on “Form and crystallinity”) in data set [2] is given as “still Compound 1 fumarate Form B”. Moreover, the DVS behaviour entry in data set [2] (from 0% RH to 40% RH, 25° C.) is “stable”; in data set [2] (relative humidity above 40%, 25° C.), “started to absorb water when relative humidity was above 40% and converted to a potential hydrate”. Moreover, the “Form after dry grinding and compression” value in data set [3] (dry grinding and compression) was “showed Form change”. Also, in the data set “PK exposure”, the PK exposure result is listed as “good PK exposure”.
Take `CC(=O)Nc1cc(Nc2cc(C3CCOCC3)cc(S(C)(=O)=O)n2)c(-c2ccc3c(n2)OCC(C)(C)O3)cn1` [Compound 1 hydrochloride Form C, N-(5-(2,2-dimethyl-2,3-dihydro-[1,4]dioxino[2,3-b]pyridin-6-yl)-4-((6-(methylsulfonyl)-4-(tetrahydro-2H-pyran-4-yl)pyridin-2-yl)amino)pyridin-2-yl)acetamide]: in the data set “Bulk stability” (25° C./60% RH, open container), the bulk stability entry is “physically and chemically stable”. For the same molecule, in “Bulk stability” (40° C./75% RH, open container), the bulk stability entry was “physically and chemically stable”. The bulk stability result in “Bulk stability” (60° C., tight container) was “physically and chemically stable”. Further, in data set [2], the hygroscopicity entry is given as “slightly hygroscopic”; the “Form and crystallinity” value was “No Form changed”; the water absorbed result is recorded as “about 0.29%”. The tolerance to compression result in data set [3] (compression) is “good tolerance to compression with no Form change and no obvious crystallinity decrease”. For the same molecule, in data set [3], the “tolerance to compression, dry grinding, granulation simulation” value (“tolerance to compression, dry grinding” for short) is reported as “good tolerance”. Also, the “XRPD peaks after compression” value in data set [3] (compression at 5 MPa, 10 MPa, and 20 MPa) is given as “became slightly broad”.
As for `CC(=O)Nc1cc(Nc2cc(C3CCOCC3)cc(S(C)(=O)=O)n2)c(-c2ccc3c(n2)OCC(C)(C)O3)cn1` [Compound 1 maleate Form A, N-(5-(2,2-dimethyl-2,3-dihydro-[1,4]dioxino[2,3-b]pyridin-6-yl)-4-((6-(methylsulfonyl)-4-(tetrahydro-2H-pyran-4-yl)pyridin-2-yl)amino)pyridin-2-yl)acetamide], in the data set “Bulk stability” (25° C./60% RH, open container), the bulk stability entry was “physically and chemically stable”. Further, the bulk stability entry in “Bulk stability” (40° C./75% RH, open container) was “physically and chemically stable”. Further, the solubility result in data set [1] is recorded as “relatively high solubility”. In data set [2], the hygroscopicity entry is on record as “slightly hygroscopic”; the “Form and crystallinity” value is “No Form and crystallinity changed”; the water absorbed result is reported as “about 0.4%”. Moreover, the “tolerance to compression, dry grinding” value in data set [3] is recorded as “good tolerance”. Also, the PK exposure result in “PK exposure” is given as “good PK exposure”.
Take `CC(=O)Nc1cc(Nc2cc(C3CCOCC3)cc(S(C)(=O)=O)n2)c(-c2ccc3c(n2)OCC(C)(C)O3)cn1` [Compound 1 Form A, N-(5-(2,2-dimethyl-2,3-dihydro-[1,4]dioxino[2,3-b]pyridin-6-yl)-4-((6-(methylsulfonyl)-4-(tetrahydro-2H-pyran-4-yl)pyridin-2-yl)amino)pyridin-2-yl)acetamide]: in data set [4], the “physicochemical stability (crystalline Form after the experiments)” value is “still kept the same Form”.
As for `CC(=O)Nc1cc(Nc2cc(C3CCOCC3)cc(S(C)(=O)=O)n2)c(-c2ccc3c(n2)OCC(C)(C)O3)cn1` [Compound 1 mesylate Form C, N-(5-(2,2-dimethyl-2,3-dihydro-[1,4]dioxino[2,3-b]pyridin-6-yl)-4-((6-(methylsulfonyl)-4-(tetrahydro-2H-pyran-4-yl)pyridin-2-yl)amino)pyridin-2-yl)acetamide], the bulk stability result in the data set “Bulk stability” (25° C./60% RH, open container) is “physically and chemically stable”. Besides, the bulk stability result in the data set “Bulk stability” (40° C./75% RH, open container) is “physically and chemically stable”. Further, in data set [1], the solubility entry was “relatively high solubility”. Further, in data set [2], the hygroscopicity entry is “slightly hygroscopic”; the “Form and crystallinity” value was “No Form and crystallinity changed”; the water absorbed result is reported as “about 1.1%”. Further, in data set [3], the “tolerance to compression, dry grinding” value is “good tolerance”. The PK exposure result in the data set “PK exposure” is recorded as “good PK exposure”.
Consider `CC(=O)Nc1cc(Nc2cc(C3CCOCC3)cc(S(C)(=O)=O)n2)c(-c2ccc3c(n2)OCC(C)(C)O3)cn1` [Compound 1 hydrochloride Form D, N-(5-(2,2-dimethyl-2,3-dihydro-[1,4]dioxino[2,3-b]pyridin-6-yl)-4-((6-(methylsulfonyl)-4-(tetrahydro-2H-pyran-4-yl)pyridin-2-yl)amino)pyridin-2-yl)acetamide], for which the bulk stability entry in the data set “Bulk stability” (25° C./60% RH, open container) is “physically and chemically stable”. Besides, in “Bulk stability” (40° C./75% RH, open container), the bulk stability result was “physically and chemically stable”. In the data set “Bulk stability” (60° C., tight container), the bulk stability entry was “physically and chemically stable”. For the same molecule, in data set [2], the hygroscopicity result was “non-hygroscopic”; the “Form and crystallinity” value is on record as “No Form changed”; the water absorbed entry is given as “about 0.14%”. Further, the “tolerance to compression, dry grinding” value in data set [3] is reported as “good tolerance”. For the same molecule, the “XRPD peaks after compression” value in data set [3] (compression under 5 MPa and 10 MPa) is given as “became slightly broad”.
With `CC(=O)Nc1cc(Nc2cc(C3CCOCC3)cc(S(C)(=O)=O)n2)c(-c2ccc3c(n2)OCC(C)(C)O3)cn1` [Compound 1 phosphate Form A, N-(5-(2,2-dimethyl-2,3-dihydro-[1,4]dioxino[2,3-b]pyridin-6-yl)-4-((6-(methylsulfonyl)-4-(tetrahydro-2H-pyran-4-yl)pyridin-2-yl)amino)pyridin-2-yl)acetamide], the bulk stability result in “Bulk stability” (25° C./60% RH, open container) was “physically and chemically stable”. Moreover, the bulk stability entry in the data set “Bulk stability” (40° C./75% RH, open container) was “physically and chemically stable”. For the same molecule, the solubility result in data set [1] was “relatively high solubility”. The same molecule returned a solubility at 1 h in data set [1] (pH 2, simulated gastric fluid, thermodynamic from solid, SGF, 37° C., at 1 h) of approximately 0.74 mg/mL. Besides, in data set [2], the hygroscopicity entry is on record as “slightly hygroscopic”; the “Form and crystallinity” value was “No Form and crystallinity change”; the water absorbed result is on record as “about 2.3%”. The “tolerance to compression, dry grinding” value in data set [3] is “good tolerance”. The PK exposure result in the data set “PK exposure” is reported as “good PK exposure”.
